Measured values: patent publication US20240415785A1, “USE OF D-ARABITOL IN LIPID-LOWERING AND HEPATOPROTECTION” (NANJING UNIVERSITY OF CHINESE MEDICINE, priority 2022, published 2024)

Experiments:
Format in all cases: in vivo
[1] = tested on: C57 BL/6 J male mice with the high-fat diet; assay: Body weight ratio of mice with the high-fat diet; conditions: high-fat feed, 12 weeks, compared with model group
Protocol: (§1) D-arabitol, L-arabitol, L-arabinose, D-arabinose, and D-xylitol each were prepared with sterile distilled water into a 50 g/L or 20 g/L solution.
(§2) A total of 64 SPF-grade 8-week-old C57 BL/6 J male mice were adaptively raised for 3 d with a normal diet in a barrier facility having an independently-ventilated cage (IVC), tested for an initial body weight, and randomly divided into 8 groups. On day 4, the mice in the 8 groups were administered with a normal feed or a high-fat feed, and drinking water for mice in an administration group was replaced with drug-containing water. Each mouse had free access to food and drinking water, and a body weight was recorded weekly. The grouping, diets, and administration were as follows: • (1) normal diet group (Chow): normal feed+sterile distilled water; • (2) high-fat diet group (HFD): high-fat feed+sterile distilled water; • (3) 50 g/L L-arabitol group (HFD+50 g/L L-Arabitol): high-fat feed+50 g/L L-arabitol; • (4) 20 g/L D-arabitol group (HFD+20 g/L D-Arabitol): high-fat feed+20 g/L D-arabitol; • (5) 50 g/L D-arabitol group (HFD+50 g/L D-Arabitol): high-fat feed+50 g/L D-arabitol; • (6) 50 g/L L-arabinose group (HFD+50 g/L L-Arabinose): high-fat feed+50 g/L L-arabinose; • (7) 50 g/L D-arabinose group (HFD+50 g/L D-Arabinose): high-fat feed+50 g/L D-arabinose; and • (8) 50 g/L xylitol group (HFD+50 g/L Xylitol): high-fat feed+50 g/L xylitol.
Mouse body weight ratio: a body weight at the nth week (g)×100%/an initial body weight (g). Data was subjected to statistical tests with Graphpad Prism v9.0. Two-way ANOVA and Tukey's multiple comparison tests were adopted for body weight data, and one-way ANOVA and Dunnett's multiple comparison tests were adopted for other data.

[2] = tested on: C57 BL/6 J male mice with the high-fat diet; assay: Blood lipid levels (total TG, LDL-c, HDL-c) in serum of mice with the high-fat diet; conditions: high-fat feed, compared with high-fat diet group
Protocol: as §1, §2
(§3) At the end of the experiment, each mouse was anesthetized by intraperitoneal injection of sodium pentobarbital with a concentration of 5 mg/mL, the injection volume was 0.1 mL/10 g, and the injection dose was 50 mg/kg, and then blood was collected from the orbit. The mouse was sacrificed through cervical dislocation, and a liver was collected, rinsed with normal saline, and dried with a filter paper. A liver lobe was taken and fixed in paraformaldehyde. The remaining liver was quickly frozen with liquid nitrogen, and stored at −80° C. The blood was allowed to stand for 30 min and then centrifuged at 3,500 rpm for 10 min to obtain a supernatant, and the supernatant was collected and stored at −80° C.
A serum sample was taken, thawed at 4° C., and tested for serum HDL-c, LDL-c, total TG, ALT, and aspartate aminotransferase (AST) according to instructions of kits.

[3] = tested on: C57 BL/6 J male mice with the high-fat diet; assay: Total cholesterol (TC) level in liver of mice with the high-fat diet; conditions: high-fat feed 12 weeks, compared with high-fat diet group
Protocol: as §1
as §2, with “xylitol. […]” for “xylitol.”

[4] = tested on: C57 BL/6 J male mice with the high-fat diet; assay: Liver histopathology (H&E staining) of mice with the high-fat diet; conditions: high-fat feed
Protocol: as §1, §2, §3
A liver tissue that had been fixed with 4% paraformaldehyde was taken and subjected to gradient dehydration in the dehydrator as follows: in 75% ethanol for 4 h, in 85% ethanol for 2 h, in 90% ethanol for 2 h, in 95% ethanol for 1 h, in absolute ethanol I for 30 min, and in absolute ethanol II for 30 min. A tissue obtained after complete dehydration was permeabilized 1 time with a mixed solution of absolute ethanol and xylene mixed in equal volumes, and then permeabilized 2 times with pure xylene for about 5 min to 10 min each time. […]

[5] = tested on: C57 BL/6 J male mice with the high-fat diet; assay: Serum ALT level of mice with the high-fat diet; conditions: high-fat feed 12 weeks, compared with high-fat diet group
Protocol: as §1
as §2, with “xylitol. […]” for “xylitol.”

[6] = tested on: patient with a high blood or liver lipid level; assay: Lipid-lowering method in patient or individual with a high blood or liver lipid level
Text: A lipid-lowering method was provided, including: a drug was orally administered to or injected into a patient with a high blood or liver lipid level, where an active ingredient of the drug was D-arabitol.
A lipid-lowering method was provided, including: an individual with a high blood or liver lipid level was allowed to take a health care product or a food, where the health care product or the food included D-arabitol as an active ingredient.

[7] = tested on: patient with a liver damage caused by a high blood or liver lipid level; assay: Hepatoprotection method in patient or individual with a liver damage caused by a high blood or liver lipid level
Text: A hepatoprotection method was provided, including: a drug was orally administered to or injected into a patient with a liver damage caused by a high blood or liver lipid level, where an active ingredient of the drug was D-arabitol.
A hepatoprotection method was provided, including: an individual with a liver damage caused by a high blood or liver lipid level was allowed to take a health care product or a food, where the health care product or the food included D-arabitol as an active ingredient.

O=C[C@@H](O)[C@H](O)[C@H](O)CO [D-arabinose]
body weight ratio ([1]; 50 g/L in drinking water): did not have an effect of making a body weight ratio of mice significantly decrease

OC[C@@H](O)C(O)[C@H](O)CO [D-arabitol]
body weight ratio ([1]; 20 g/L in drinking water): start to significantly decrease from week 8
body weight ratio ([1]; 50 g/L in drinking water): start to significantly decrease from week 4
HDL-c concentration in serum ([2]; 20 g/L in drinking water): significantly reduce
LDL-c concentration in serum ([2]; 20 g/L in drinking water): significantly reduce
HDL-c concentration in serum ([2]; 50 g/L in drinking water): significantly reduce
LDL-c concentration in serum ([2]; 50 g/L in drinking water): significantly reduce
total TG in serum ([2]; 50 g/L in drinking water): decreased significantly
accumulation of TC in the liver ([3]; 20 g/L in drinking water): significantly reduce
accumulation of TC in the liver ([3]; 50 g/L in drinking water): significantly reduce
white vacuoles (lipid droplets) in the liver tissue, H&E staining ([4]; 20 g/L in drinking water): no obvious white vacuoles
white vacuoles (lipid droplets) in the liver tissue, H&E staining ([4]; 50 g/L in drinking water): no obvious white vacuoles
serum ALT concentration ([5]; 20 g/L in drinking water): significantly reduce
serum ALT concentration ([5]; 50 g/L in drinking water): significantly reduce
blood or liver lipid level in the patient ([6]; drug orally administered or injected, patient with a high blood or liver lipid level (Example 2)): decreased effectively
blood or liver lipid level in the individual ([6]; health care product or food taken by individual with a high blood or liver lipid level (Example 4)): decreased effectively
liver function in the patient ([7]; drug orally administered or injected, patient with a liver damage caused by a high blood or liver lipid level (Example 3)): improved effectively
liver function in the individual ([7]; health care product or food taken by individual with a liver damage caused by a high blood or liver lipid level (Example 5)): improved effectively

O=C[C@H](O)[C@@H](O)[C@@H](O)CO [L-arabinose]
body weight ratio ([1]; 50 g/L in drinking water): did not have an effect of making a body weight ratio of mice significantly decrease

OC[C@H](O)C(O)[C@@H](O)CO [L-arabitol, reference compound]
body weight ratio ([1]; 50 g/L in drinking water): did not have an effect of making a body weight ratio of mice significantly decrease
liver cell structures, H&E staining (liver damage) ([4]; 50 g/L in drinking water): liver cell structures disappeared
white vacuoles (lipid droplets) in the liver tissue, H&E staining ([4]; 50 g/L in drinking water): no significant white vacuoles

OC[C@@H](O)[C@H](O)[C@@H](O)CO [xylitol, Xylitol]
body weight ratio ([1]; 50 g/L in drinking water): did not have an effect of making a body weight ratio of mice significantly decrease
